The record followed here is article PMC8297771 (PLoS Pathogens, 2021).

The test system of series [1] is Ral-resistant (1556_1) clinical isolate. The series is described as follows: In vitro anti-viral assay in human PBMCs (RT activity readout). It counts as cell-based, HIV-1. As for the experimental part: (§1) For the assay with human PBMCs, PHA stimulated cells from at least two pooled healthy were infected with HIV-1 strains in 96-well plates. Test drug dilutions, which were prepared at a 2X concentration in microtiter tubes and 100 μL of each concentration (nine total concentrations), were placed in appropriate wells using the standard format. 50 μL of a predetermined dilution of virus stock was placed in each test well (final MOI ≅ 0.1). The PBMC cultures were maintained for 7 days following infection at 37 °C, 5% CO2. After this period, cell-free supernatant samples were collected for analysis of reverse transcriptase (RT) activity. All assays were conducted in triplicates. For RT assay, a microtiter plate-based reverse transcriptase (RT) reaction was utilized (Buckheit et al., AIDS Research and Human Retroviruses 7:295–302, 1991). Tritiated thymidine triphosphate (^3H-TTP, 80 Ci/mmol, NEN) is received in 1:1 dH2O: Ethanol at 1 mCi/mL. Poly rA:oligo dT template:primer (GE Healthcare) was prepared as a stock solution by combining 150 μL poly rA (20 mg/mL) with 0.5 mL oligo dT (20 units/mL) and 5.35 mL sterile dH2O followed by aliquoting (1.0 mL) and storage at—20°C. The RT reaction buffer was prepared fresh on a daily basis and consisted of 125 μL 1.0 M EGTA, 125 μL dH2O, 125 μL 20% Triton X100, 50 μL 1.0 M Tris (pH 7.4), 50 μL 1.0 M DTT, and 40 μL 1.0 M MgCl2. The final reaction mixture was prepared by combining 1 part ^3H-TTP, 4 parts dH2O, 2.5 parts poly rA:oligo dT stock and 2.5 parts reaction buffer. Ten microliters of this reaction mixture were placed in a round bottom microtiter plate and 15 μL of virus containing supernatant is added and mixed. The plate was incubated at 37°C for 60 mins. Following incubation, the reaction volume was spotted onto DE81 filter-mats (Wallac), washed 5 times for 5 mins each in a 5% sodium phosphate buffer or 2X SSC (Life Technologies). Next they were washed 2 times for 1 min each in distilled water, 2 times for 1 min each in 70% ethanol, and then dried. Incorporated radioactivity (counts per min, CPM) was quantified using standard liquid scintillation techniques. These PBMC analysis was conducted by fee to service through Southern Research Institute (Frederick, MD, USA). The IC50 were analyzed using GraphPad Prism (Version 9) and presented as means ± S.D. of the triplicates.

Series [2] relates to Ral-resistant (4736_2) clinical isolate. The description is as above. The format is cell-based, HIV-1. To be noted: human PBMCs, Ral-resistant (4736_2). The method, then:
as §1

The subject of series [3] is Ral-resistant (4736_4) clinical isolate. The description is as above. It counts as cell-based, HIV-1. To be noted: human PBMCs, Ral-resistant (4736_4). As for the experimental part:
as §1

Series [4] concerns Ral-resistant (8070_1) clinical isolate. The description is as above. The format is cell-based, HIV-1. The method, then: as §1
The test system of series [5] is Ral-resistant (8070_2) clinical isolate. The description is as above. The format is cell-based, HIV-1. The method, then: as §1
A further series concerns the target IN-LEDGF/p75 binding (Human immunodeficiency virus type 1 group M subtype B, UniProt P12497). The series is described as follows: HTRF-based inhibition assay for LEDGF/p75 binding to IN. The format is biochemical, HIV-1. The method, then: We examined the ability of STP0404 to inhibit IN binding to LEDGF/p75 using another HTRF-based assay. Briefly, 10 nM His-tagged IN was pre-incubated in a binding buffer (150 mm NaCl, 2 mm MgCl2, 0.1% Nonidet P-40, 1 mg/ml BSA, 25 mm Tris, pH 7.4) with the compound for 30 min at room temperature, and then 10 nM FLAG-tagged LEDGF/p75 was added to the reaction. This was followed by addition of 6.6 nM anti-His6-XL665 and 0.45 nM anti-FLAG-EuCryptate antibodies (Cisbio, Inc., Bedford, MA).
For orientation: Time-resolved FRET reads energy transfer from a long-lived donor to a nearby acceptor.

A short description of series [6]: Hepatocyte stability determination. It counts as in vitro ADME. Particulars: monkey and human hepatocytes. As for the experimental part:
Incubation was conducted in 96-well cell culture plate format. The plates were labeled as T0, T15, T30, T60, T90, T0-MC, T90-MC and Blank, respectively. All plates were pre-warmed for 10 to 20 mins at 37±1°C in an incubator of 5% CO2 and saturated humidity. The vials of cryopreserved SD rat, beagle dog, cynomolgus monkey and human hepatocyte were removed from the liquid nitrogen container and immediately immersed in a water bath (the setting temperature was 37°C) for approximately 90 secs to allow the ice pellets melted. The melted ice pellets were transferred into pre-warmed 40 mL of Thawing Medium tubes mixed well by gently inverting the tubes then centrifuged at 100 ×g for 5 mins at room temperature. The supernatants were discarded and cell pellets were re-suspended by adding appropriate volumes of pre-warmed WEM. The cells viability of each species was determined using Trypan Blue exclusion. The viabilities of rat, dog, cynomolgus and human hepatocytes were 89.0%, 94.3%, 88.0% and 91.8%, respectively. Cells were finally diluted to 0.625×10^6 cells/mL with pre-warmed WEM. At each corresponding time point, the sample reactions were stopped by adding 150 μL of acetonitrile containing 200 ng/mL tolbutamide and 200 ng/mL labetalol as internal standards. All sample plates were thoroughly mixed and centrifuged at 3220 ×g for 20 mins. […]

[7] abbreviates: Human immunodeficiency virus 1, PBMC.
Where [8] appears, read: Human immunodeficiency virus 1, PBMC, read-out: IC50.

Usually IC50 stands for the concentration that gives 50% inhibition. With `Cc1nc2c(c(C)c(C)n2Cc2cnn(C)c2)c(-c2ccc(Cl)cc2)c1[C@H](OC(C)(C)C)C(=O)O` [STP0404], the “TI (TC50 / IC50)” value in series [1] is >125,000; in series [2] it was >330,000; in series [3], >250,000; in series [4] (human PBMCs, Ral-resistant (8070_1)) it was >166,000; in series [5], >43,400. The half-inhibitory concentration (IC50) in series [1] (setting [7]) came to 0.08 ± 0.04 nM; in series [2] (setting [8]) it was 0.03 ± 0.04 nM; in series [3] (setting [8]), 0.04 ± 0.06 nM; in series [4] (setting [7]) it was 0.06 ± 0.07 nM; in series [5] (setting [7]) it was 0.23 ± 0.39 nM; at IN-LEDGF/p75 binding, 190 ± 70 nM. For the same compound, the “metabolic stability in hepatocytes (in words)” value in series [6] is “much longer metabolic stability”.
